Laboratory results reported in ChEMBL document CHEMBL5506004, “Optimizing drug-like properties of selective butyrylcholinesterase inhibitors for cognitive improvement: Enhancing aqueous solubility by disrupting molecular plane” (Eur J Med Chem, 2024).
Activity calls are given as the source filed them. The rule behind the calls is not given here.

Key:
hERG (KCNH2) = hERG (KCNH2) (Homo sapiens, UniProt Q12809); assay: Inhibition of hERG at 10 uM by manual patch clamp assay relative to control; type: toxicity
Chain of hERG (KCNH2) (Q12809 whole entry): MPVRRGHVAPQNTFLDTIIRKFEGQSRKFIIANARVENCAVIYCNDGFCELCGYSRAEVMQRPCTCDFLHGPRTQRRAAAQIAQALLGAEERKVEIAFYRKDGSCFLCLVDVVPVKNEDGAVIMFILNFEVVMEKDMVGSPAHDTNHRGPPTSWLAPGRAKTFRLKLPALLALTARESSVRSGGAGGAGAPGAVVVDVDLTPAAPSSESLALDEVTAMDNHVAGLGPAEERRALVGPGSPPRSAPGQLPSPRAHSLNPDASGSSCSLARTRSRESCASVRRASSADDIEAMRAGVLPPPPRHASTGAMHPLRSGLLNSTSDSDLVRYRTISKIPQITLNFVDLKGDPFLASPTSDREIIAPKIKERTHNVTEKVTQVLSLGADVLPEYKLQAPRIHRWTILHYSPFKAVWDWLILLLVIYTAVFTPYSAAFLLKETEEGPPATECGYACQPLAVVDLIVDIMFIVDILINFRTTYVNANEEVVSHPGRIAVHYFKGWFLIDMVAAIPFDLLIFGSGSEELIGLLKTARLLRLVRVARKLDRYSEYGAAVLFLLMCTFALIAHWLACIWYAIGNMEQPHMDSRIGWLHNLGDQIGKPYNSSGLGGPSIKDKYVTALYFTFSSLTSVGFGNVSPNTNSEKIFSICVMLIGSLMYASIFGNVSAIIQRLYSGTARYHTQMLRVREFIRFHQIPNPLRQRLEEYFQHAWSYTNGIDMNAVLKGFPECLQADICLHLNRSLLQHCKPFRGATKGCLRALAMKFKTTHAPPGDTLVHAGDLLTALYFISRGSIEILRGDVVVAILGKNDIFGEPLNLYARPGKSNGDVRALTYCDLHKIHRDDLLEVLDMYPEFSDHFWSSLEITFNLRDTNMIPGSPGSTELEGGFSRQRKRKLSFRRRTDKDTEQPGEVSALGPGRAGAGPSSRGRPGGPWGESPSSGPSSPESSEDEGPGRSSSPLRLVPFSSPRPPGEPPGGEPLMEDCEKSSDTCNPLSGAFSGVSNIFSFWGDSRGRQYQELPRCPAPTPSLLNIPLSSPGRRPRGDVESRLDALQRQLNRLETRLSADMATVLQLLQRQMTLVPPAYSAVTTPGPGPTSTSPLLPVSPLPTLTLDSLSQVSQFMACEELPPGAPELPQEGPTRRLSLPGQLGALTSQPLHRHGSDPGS

[1] = AUC (0 to t) in brain of ICR mouse at 10 mg/kg, po measured for 10 to 480 mins by spectroscopy; type: ADME, organism-based; settings: time 10-480 min
[2] = Acute toxicity in ICR mouse assessed as animal death at 1 g/kg, IG; settings: in vivo, po, 1000 mg/kg
Mus musculus = assay: Cognitive enhancing effect in Amyloid beta (1 to 42)-treated ICR mouse assessed as spontaneous decision behaviour at 10 mg/kg, po administered daily measured after 13 days by Y-maze test; type: functional, organism-based; settings: time 13.0 day
Cytochrome P450 1A2 = biological target: T1, Cytochrome P450 1A2 (Homo sapiens, UniProt P05177); assay: Inhibition of CYP1A2 in human liver microsomes at 10 uM in presence of NADPH-regenerating system by LC-MS/MS analysis; type: ADME, Microsome
T1 sequence (P05177 whole entry): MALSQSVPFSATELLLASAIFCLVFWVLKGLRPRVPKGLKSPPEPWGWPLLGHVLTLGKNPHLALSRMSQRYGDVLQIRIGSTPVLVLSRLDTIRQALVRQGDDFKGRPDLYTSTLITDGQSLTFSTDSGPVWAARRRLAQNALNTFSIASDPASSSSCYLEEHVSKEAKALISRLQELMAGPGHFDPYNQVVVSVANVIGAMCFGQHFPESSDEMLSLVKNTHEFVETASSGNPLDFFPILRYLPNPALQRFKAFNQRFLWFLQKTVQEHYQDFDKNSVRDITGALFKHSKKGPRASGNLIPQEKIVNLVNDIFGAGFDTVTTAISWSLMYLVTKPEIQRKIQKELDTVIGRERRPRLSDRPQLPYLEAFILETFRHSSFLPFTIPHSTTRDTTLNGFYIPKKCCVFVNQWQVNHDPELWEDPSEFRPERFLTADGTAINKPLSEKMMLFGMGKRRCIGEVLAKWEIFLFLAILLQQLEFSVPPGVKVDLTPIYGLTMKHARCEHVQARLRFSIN

Cytochrome P450 3A4/3A5 = Cytochrome P450 3A4/3A5 (Homo sapiens, UniProt P08684+P20815); assay: Inhibition of CYP3A4/CYP3A5 in human liver microsomes at 10 uM in presence of NADPH-regenerating system by LC-MS/MS analysis; type: ADME, Microsome
[3] = Half life in Sprague-Dawley rat at 10 mg/kg, iv measured for 1 to 1440 mins by LC-MS/MS analysis; type: ADME, organism-based; settings: in vivo, time 1-1440 min
HT-22 = assay: Neuroprotective activity against glutamate-induced excitotoxicity in mouse HT-22 cells assessed as cell viability at 1 to 10 uM pretreated for 1 hr followed by glutamate addition measured after 24 hrs by MTT assay; type: functional, cell-based; settings: dose 1-10 µM, time 25.0 hrs
[4] = Tmax in Sprague-Dawley rat at 10 mg/kg, iv measured for 1 to 1440 mins by LC-MS/MS analysis; type: ADME, organism-based; settings: in vivo, time 1-1440 min
SH-SY5Y = assay: Cytotoxicity against human SH-SY5Y cells assessed as survival rate incubated for 24 hrs by MTT assay; type: functional, cell-based

In the case of `Nc1nonc1-c1nc2ccccc2n1CC(=O)Nc1ccc(CCN2CCOCC2)cc1`, the inhibition at 10 µM (hERG (KCNH2)) is reported as 25.5%, the AUC(0-t) [1] is reported as 268 ng·h/mL and the Activity [2] is reported as “Non-Toxic”. For the same compound, the Activity (Mus musculus) was “Active”, the “inhibition (INH)” value (Cytochrome P450 1A2) was “Not Active” and the “inhibition (INH)” value (Cytochrome P450 3A4/3A5) was “Not Active”. For the same compound, the half-life [3] was 3.29 h, the Activity (HT-22) was “Active” and the Tmax [4] was 3 min. It also gave an IC50 (SH-SY5Y) of 89.8 µM.
